# In patent US11253594B2, “Drug combinations for protecting against neuronal cell death” (UNIVERSITY OF PITTSBURGH-OF THE COMMONWEALTH SYSTEM OF …, priority 2017, dated 2022):
# Test system: STHdh^Q111 cells
# Experiment: 384-well PI (propidium iodide) assay, protection from mHTT induced cell death
# Format: cell-based, mouse
# Conditions: FIG. 10
# Description: The well-established STHdh^Q111 cell model for HD was employed to identify compounds that can protect neuronal cells from mHTT-dependent cell death. […] The propidium iodide (PI) readout enables an unbiased assessment of cell death by measuring an irreversible step that is common to all cytotoxic mechanisms.
# The stress conditions for testing compounds involved incubation of the cells in serum-free medium at 37° C. and 5% CO2.
# Prior to compound treatment, medium was removed and the cells washed once with PBS (pH=7.4) after which 45 μl of complete medium was added. Compounds in 5 μl complete medium were added to cells. […] Compounds in serum free medium (5 μl) were added and cells were incubated at 37° C. and 5% CO2.
# Image analysis was carried out using the Multiwavelength Cell Scoring application in the MetaXpress software. The nuclear compartment was identified in Ch1 with a threshold intensity of 2,000 above background and the Texas Red compartment was identified in Ch2 with a threshold intensity of 20,000 above background.
# For the analyses presented here the Percent Recovery was calculated from the Percent PI positive cells by:
# [formula] where positive controls are the STHdh^Q7 cells, and negative controls are the STHdh^Q111 cells treated with DMSO
# The LOPAC library was screened in the 384-well PI assay at 30, 10, and 3 μM.
structure (smiles),measurement,setting,value
"CCOc1ccc2nc(S(C)(=O)=O)sc2c1 [methyl sulfonyl analog of ETX, 6-ethoxy-2-(methylsulfonyl) benzo[d]thiazole]",efficacy relative to ethoxzolamide,,equally efficacious
same,STHdh^Q111 cells protected,maximal protection,~50%
same,potency in protecting STHdh^Q111 cells relative to ETX,propidium iodide assay,7 fold
